Data published in ChEMBL document CHEMBL3091345, “Strepsesquitriol, a rearranged zizaane-type sesquiterpenoid from the deep-sea-derived actinomycete Streptomyces sp. SCSIO 10355” (2013).

System: RAW264.7
Test: Antiinflammatory activity in mouse RAW264.7 cells assessed as inhibition of LPS-induced TNFalpha production at 100 uM treated 4 hrs before LPS challenge measured after overnight incubation by ELISA
Assay type: functional

SMILES | inhibition at 100 µM [%]
C[C@H]1C[C@@H](O)[C@]23C[C@H](CC[C@]12O)C(C)(C)[C@]3(C)O | 35.4
Cc1ccc(S(=O)(=O)N[C@@H](Cc2ccccc2)C(=O)CCl)cc1 [TPCK] | 60.6
